Here are results for 7 compounds from ChEMBL document CHEMBL2406944, “Development of stapled short helical peptides capable of inhibiting vitamin D receptor (VDR)-coactivator interactions” (Bioorg Med Chem Lett, 2013).

The structures appear in SMILES notation. Starred links: 1 amine or outer side, 2 acyl side, 3 side chain; linkers in the order of their positions; H or OH if unused. Positions of bridges follow the written chain, without caps; N, C: chain ends. Non-standard residues stand in square brackets, D forms with d. Residues, ends and D or L forms follow the SMILES beside them. hSer = N[C@@H](CCO)C(=O)O; X1 = C(CC[*:2])C[*:1]; Aib = CC(C)(N)C(=O)O

In this assay the target is T1, Vitamin D3 receptor (Homo sapiens, UniProt P11473).
T1 sequence (P11473 whole entry): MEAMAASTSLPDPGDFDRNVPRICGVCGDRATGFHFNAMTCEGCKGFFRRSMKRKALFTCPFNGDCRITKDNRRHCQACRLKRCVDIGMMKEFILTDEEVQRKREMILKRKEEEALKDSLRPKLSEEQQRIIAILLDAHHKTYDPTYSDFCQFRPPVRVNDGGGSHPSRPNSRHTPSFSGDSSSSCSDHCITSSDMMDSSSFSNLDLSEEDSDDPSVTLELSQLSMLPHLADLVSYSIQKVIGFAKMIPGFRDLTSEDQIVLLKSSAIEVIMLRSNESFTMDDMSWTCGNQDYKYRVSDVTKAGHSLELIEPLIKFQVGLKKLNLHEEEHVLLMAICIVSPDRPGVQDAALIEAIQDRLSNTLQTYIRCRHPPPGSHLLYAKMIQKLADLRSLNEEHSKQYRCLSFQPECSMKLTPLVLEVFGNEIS
The assay is described as follows: Inhibition of human VDR-coactivator interaction.
Broadly, the IC50 is the concentration at which inhibition is half-maximal. `CC(C)C[C@@H]1NC(=O)[C@H](CC(C)C)NC(=O)C(C)(C)NC(=O)[C@H](NC(=O)[C@H](CC(C)C)NC(=O)[C@@H](N)CC(C)C)COCCCCOC[C@@H](C(=O)O)NC1=O` yielded an IC50 of 610 µM.

Take `CC(C)C[C@@H]1NC(=O)[C@H](CC(C)C)NC(=O)C(C)(C)NC(=O)[C@H](NC(=O)[C@H](CC(C)C)NC(=O)[C@@H](N)CC(C)C)COCCCCOC[C@H](C(=O)O)NC1=O`: half-maximal inhibition (IC50) was put at 600 µM. The IC50 values of the last two compounds are within 1.5-fold of each other.

With `CC(C)C[C@@H]1NC(=O)[C@H](CC(C)C)NC(=O)C(C)(C)NC(=O)[C@@H](NC(=O)[C@H](CC(C)C)NC(=O)[C@@H](N)CC(C)C)COCCCCOC[C@H](C(=O)O)NC1=O`, the IC50 turned out to be 430 µM. This IC50 and that of the compound before are within 1.5-fold of each other.

On to `CC(C)C[C@@H]1NC(=O)[C@H](CC(C)C)NC(=O)C(C)(C)NC(=O)[C@@H](NC(=O)[C@H](CC(C)C)NC(=O)[C@@H](N)CC(C)C)COCCCCOC[C@@H](C(=O)O)NC1=O`, for which the IC50 turned out to be 610 µM. The IC50 values of the last two compounds are within 1.5-fold of each other.

`CC(C)C[C@@H]1NC(=O)[C@H](CC(C)C)NC(=O)C(C)(C)NC(=O)[C@@H](NC(=O)[C@H](CC(C)C)NC(=O)[C@@H](N)CC(C)C)CCOCCCCOC[C@@H](C(=O)O)NC1=O` (H-LL[hSer][Aib]LLS-OH; linker 3-7 via X1) had an IC50 of 520 µM.

The compound `CC(C)C[C@@H]1NC(=O)[C@H](CC(C)C)NC(=O)C(C)(C)NC(=O)[C@@H](NC(=O)[C@H](CC(C)C)NC(=O)[C@@H](N)CC(C)C)CCOCCCCOCC[C@@H](C(=O)O)NC1=O` (H-LL[hSer][Aib]LL[hSer]-OH; linker 3-7 via X1) gave a concentration for half-maximal inhibition (IC50) of 220 µM.

Compound `CC(C)C[C@@H]1NC(=O)[C@H](CC(C)C)NC(=O)C(C)(C)NC(=O)[C@@H](NC(=O)[C@H](CC(C)C)NC(=O)[C@@H](N)CC(C)C)CCOCC(O)C(O)COCC[C@@H](C(=O)O)NC1=O` (mixture of isomers) yielded an IC50 of 3.2 µM.
